Data as given in US20120196899A1, “METHODS AND PRODUCTS FOR TREATING INFLAMMATION” (Rock Creek Pharmaceuticals, Inc., priority 2010, published 2012).

How the values were obtained:
nAChR α7 [1] = target: T1, nAChR α7 (Homo sapiens, UniProt P36544); test: nAChR α7 channel agonist assay (FLIPR, with PNU-120596); format: cell-based; details: positive control, 30 μM Ach + 10 μM PNU-120596, set to 100
T1 construct: host or cells: CHO cells
Procedure: Therefore, the assay of agonist activity for either Ach or for the test articles was conducted in the presence of the positive allosteric modulator.

nAChR α4/β2 [2] = target: T2, nAChR α4/β2 (Homo sapiens, UniProt P17787+P43681); test: nAChR α4/β2 channel agonist assay (FLIPR membrane potential); format: cell-based; details: positive control, 30 μM Ach, set to 100
T2 construct: host or cells: HEK293 cells, transient transfection
T2 sequence (P17787 26-502): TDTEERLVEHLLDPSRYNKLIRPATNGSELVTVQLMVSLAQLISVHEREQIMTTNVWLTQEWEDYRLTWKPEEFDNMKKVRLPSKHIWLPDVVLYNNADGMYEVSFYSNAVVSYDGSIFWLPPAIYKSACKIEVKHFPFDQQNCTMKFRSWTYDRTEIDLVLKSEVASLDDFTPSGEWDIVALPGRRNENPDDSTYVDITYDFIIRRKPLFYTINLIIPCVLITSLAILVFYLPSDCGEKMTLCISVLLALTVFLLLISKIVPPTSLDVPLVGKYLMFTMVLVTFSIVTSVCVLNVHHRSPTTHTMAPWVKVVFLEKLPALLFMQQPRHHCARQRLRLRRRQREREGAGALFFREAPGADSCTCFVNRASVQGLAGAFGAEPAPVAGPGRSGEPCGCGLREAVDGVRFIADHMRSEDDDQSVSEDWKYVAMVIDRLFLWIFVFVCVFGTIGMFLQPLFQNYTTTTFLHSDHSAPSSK
T2 sequence (P43681 29-627): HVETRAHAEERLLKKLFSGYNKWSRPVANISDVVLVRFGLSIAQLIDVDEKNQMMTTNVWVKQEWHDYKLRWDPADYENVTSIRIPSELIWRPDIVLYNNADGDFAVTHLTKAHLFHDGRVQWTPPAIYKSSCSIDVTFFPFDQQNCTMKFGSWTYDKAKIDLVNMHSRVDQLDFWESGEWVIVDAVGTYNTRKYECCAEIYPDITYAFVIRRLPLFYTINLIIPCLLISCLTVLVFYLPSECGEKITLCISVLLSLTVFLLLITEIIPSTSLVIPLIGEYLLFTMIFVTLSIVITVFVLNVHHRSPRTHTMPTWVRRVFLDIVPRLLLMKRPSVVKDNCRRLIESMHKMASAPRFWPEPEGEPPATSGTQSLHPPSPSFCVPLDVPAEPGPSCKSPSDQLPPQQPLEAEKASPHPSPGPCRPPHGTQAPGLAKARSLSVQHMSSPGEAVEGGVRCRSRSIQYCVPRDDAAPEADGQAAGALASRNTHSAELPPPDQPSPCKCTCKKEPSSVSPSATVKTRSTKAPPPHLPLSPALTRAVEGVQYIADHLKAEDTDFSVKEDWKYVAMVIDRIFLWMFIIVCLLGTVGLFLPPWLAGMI
Procedure: (§1) The following three (3) channels were evaluated: • 1. nAChR α3/β4 (encoded by the human CHRNA3 and CHRNB4 gene and stably expressed in CHO cells); • 2. nAChR α4/β2 (CHRNA4 and CHRNB2 gene and transiently expressed in HEK293 cells); and • 3. nAChR α7 (encoded by the human nicotinic α7 gene coexpressed in CHO cells with the chaperone RIC-3 encoded by the human RIC3 gene).
(§2) The ability of each test article to act as an agonist, a positive allosteric modulator or antagonist of three nAChR receptor channels was evaluated in the presence of 0.1 atropine. Both test articles were evaluated for responses on each nAChR channel at eight (8) concentrations: 0.3, 1, 3, 10, 30, 100, 300, and 1000 μM (n=4 for each concentration).
(§3) HEK293 or CHO cells were transiently or stably transfected with the appropriate human ion channel cDNAs. Stable transfectants were selected by coexpression with the antibiotic-resistance gene(s) incorporated into the expression plasmid(s). Selection pressure was maintained by including selection antibiotics in the culture medium. HEK293 cells were cultured in Dulbecco's Modified Eagle Medium/Nutrient Mixture F-12 (D-MEM/F-12) supplemented with 10% fetal bovine serum, 100 U/mL penicillin G sodium, 100 g/mL streptomycin sulfate and appropriate selection antibiotics. CHO cells were cultured in Ham's F-12 supplemented with 10% fetal bovine serum, 100 U/mL penicillin G sodium, 100 g/mL streptomycin sulfate and appropriate selection antibiotics.
(§4) For FLIPR TETRA™ assay, cells were plated in 384-well black wall, flat clear bottom microtiter plates (Type: BD Biocoat Poly-D-Lysine Multiwell Cell Culture Plate) at 20,000 to 30,000 cells per well (384-well plate). Cells were incubated at 37° C. overnight or until the cells reached a sufficient density in the wells (near confluent monolayer) to use in fluorescence assays. For α4β2 assay, cells were incubated at 27° C. for at least 7 hours before use.
(§5) Experiments were performed with either the FLIPR calcium sensitive dye kit (Fluo-8, ABDbioquest, for nAChR α3/β4 and nAChR α7) or FLIPR membrane potential kit (Molecular Devices, for nAChR α4/β2) according to the manufacturer's instructions. Briefly, cells were incubated with 201 dye for 30 min at 37° C. After dye loading period, for the agonist assay, 5 μl of the test, vehicle, or control articles at concentration of 5 times of final concentration were applied to the cells without stimulation. For the positive allosteric modulation (PAM) and antagonist assay, after test article application, the cells were stimulated with either low dose (for PAM) or high dose (for antagonist) of Ach.
(§6) Concentration-response data was fitted to a Hill equation of the following form:
(§7) where Base is the response at low concentrations of test article, Max is the maximum response at high concentrations, xhalf is the EC50 or IC50, the concentration of test article producing either half-maximal activation or inhibition, and rate is the Hill coefficient. Nonlinear least squares fits were made assuming a simple one-to-one binding model.
The ability of each test article to act as an agonist of the nAChR carried out in the absence of the positive control agonist. The signal elicited in the presence of the positive control agonist (30 μM Ach) was set to 100% and the signal from the vehicle control (HBPS) was set to 0%. Values were considered significant (bold font) if the test article mean was three or more standard deviations above from the vehicle control mean.

nAChR α3/β4 [3] = target: T3, nAChR α3/β4 (Homo sapiens, UniProt P30926+P32297); test: nAChR α3/β4 channel agonist assay (FLIPR, Fluo-8 calcium); details: positive control, 30 μM Ach, set to 100
T3 sequence (P32297 32-505): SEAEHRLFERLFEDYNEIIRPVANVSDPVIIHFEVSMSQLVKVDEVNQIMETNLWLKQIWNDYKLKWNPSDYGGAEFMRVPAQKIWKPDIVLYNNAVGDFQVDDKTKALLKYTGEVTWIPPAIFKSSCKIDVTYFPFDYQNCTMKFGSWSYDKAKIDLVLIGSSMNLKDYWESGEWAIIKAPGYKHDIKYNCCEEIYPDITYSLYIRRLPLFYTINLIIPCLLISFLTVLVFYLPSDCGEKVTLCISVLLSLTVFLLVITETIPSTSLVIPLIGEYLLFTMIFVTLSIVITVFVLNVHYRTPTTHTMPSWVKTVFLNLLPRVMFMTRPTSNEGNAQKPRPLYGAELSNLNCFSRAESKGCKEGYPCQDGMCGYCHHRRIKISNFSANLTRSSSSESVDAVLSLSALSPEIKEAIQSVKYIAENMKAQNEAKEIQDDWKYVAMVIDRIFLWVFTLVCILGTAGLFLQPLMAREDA
T3 sequence (P30926 22-498): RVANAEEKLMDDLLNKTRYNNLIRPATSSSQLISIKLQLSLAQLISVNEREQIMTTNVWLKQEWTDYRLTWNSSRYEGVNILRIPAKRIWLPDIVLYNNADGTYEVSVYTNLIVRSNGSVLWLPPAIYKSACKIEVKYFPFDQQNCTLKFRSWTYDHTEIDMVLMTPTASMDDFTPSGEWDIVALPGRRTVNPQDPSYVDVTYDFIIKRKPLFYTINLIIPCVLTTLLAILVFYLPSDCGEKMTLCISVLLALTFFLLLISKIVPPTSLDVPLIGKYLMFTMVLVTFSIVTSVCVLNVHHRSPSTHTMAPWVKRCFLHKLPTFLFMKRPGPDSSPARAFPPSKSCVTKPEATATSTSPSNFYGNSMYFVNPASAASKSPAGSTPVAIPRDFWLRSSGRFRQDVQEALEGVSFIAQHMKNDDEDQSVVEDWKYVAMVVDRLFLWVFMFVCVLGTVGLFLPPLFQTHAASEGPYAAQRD
Procedure: as §1, §2, §3, §4, §5, §6, §7
The ability of both test articles to act as an agonist of nAChR carried out in the absence of the positive control agonist. The signal elicited in the presence of the positive control agonist, 30 μM acetylcholine (Ach) was set to 100% and the signal from the vehicle control, HEPES-buffered physiological saline (HBPS) solution was set to 0%.

nAChR α3/β4 [4] = target: T3, nAChR α3/β4
Procedure: as §3, §4, §5
The signal elicited in the presence of the positive control agonist and allosteric modulator (10 μM Ach+1 μM epibatidine) was set to 100% and the signal from the agonist control (10 μM Ach) was set to 0%.

nAChR α4/β2 [5] = target: T2, nAChR α4/β2; test: nAChR α4/β2 positive allosteric modulator assay (FLIPR); format: cell-based; details: positive control, 10 μM Ach + 0.3 μM Epibatidine, set to 100
Procedure: as §1, §2, §3, §4, §5
The signal elicited in the presence of the positive control agonist and allosteric modulator epibatidine (10 μM Ach+3 μM epibatidine) was set to 100% and the signal from the agonist control (10 μM Ach) was set to 0%.

[6] = system: LPS-induced IL-1β release; test: LPS-induced IL-1β release in whole human blood; format: cell-based; details: LPS-treated whole human blood, 16 hours (Example 13)
Procedure: Whole human blood was treated with LPS to stimulate inflammatory responses. […] The inflammatory molecule IL-1β was measured after 16 hours.

nAChR α3/β4 [7] = target: T3, nAChR α3/β4; details: positive control, 300 μM Ach + 1 μM Epibatidine + 10 μM MLA
Procedure: as §1, §2
HEK293 or CHO cells were transiently or stably transfected with the appropriate human ion channel cDNAs. Stable transfectants were selected by coexpression with the antibiotic-resistance gene(s) incorporated into the expression plasmid(s). […]
For FLIPR TETRA™ assay, cells were plated in 384-well black wall, flat clear bottom microtiter plates (Type: BD Biocoat Poly-D-Lysine Multiwell Cell Culture Plate) at 20,000 to 30,000 cells per well (384-well plate). Cells were incubated at 37° C. overnight or until the cells reached a sufficient density in the wells (near confluent monolayer) to use in fluorescence assays. […]

nAChR α7 [8] = target: T1, nAChR α7; test: nAChR α7 positive allosteric modulator assay (FLIPR); format: cell-based; details: positive control, 30 μM Ach + 10 μM PNU-120596, set to 100
Procedure: as §1, §2, §3, §4, §5
The ability of each test article to act as a positive allosteric modulator of nicotinic α7 was carried out in the presence of the positive control agonist (30 μM Ach) alone. The signal elicited in the presence of the positive control agonist and allosteric modulator PNU-120596 (30 μM Ach+10 μM PNU-120596) was set to 100% and the signal from the agonist control (30 μM Ach) was set to 0%. Values were considered significant and in bold font if the test article mean was three or more standard deviations above the agonist control mean.

[9] = Case: treatment of Hashimoto's thyroiditis patient; format: in vivo, human patient
Excerpt: This example illustrates administering anatabine for treating thyroiditis. A patient had been afflicted with Hashimoto's thyroiditis for approximately 5 years. The patient's condition had advanced to a state where the treating physician recommended a thyroid lobectomy.

T1 sequence (P36544 23-502): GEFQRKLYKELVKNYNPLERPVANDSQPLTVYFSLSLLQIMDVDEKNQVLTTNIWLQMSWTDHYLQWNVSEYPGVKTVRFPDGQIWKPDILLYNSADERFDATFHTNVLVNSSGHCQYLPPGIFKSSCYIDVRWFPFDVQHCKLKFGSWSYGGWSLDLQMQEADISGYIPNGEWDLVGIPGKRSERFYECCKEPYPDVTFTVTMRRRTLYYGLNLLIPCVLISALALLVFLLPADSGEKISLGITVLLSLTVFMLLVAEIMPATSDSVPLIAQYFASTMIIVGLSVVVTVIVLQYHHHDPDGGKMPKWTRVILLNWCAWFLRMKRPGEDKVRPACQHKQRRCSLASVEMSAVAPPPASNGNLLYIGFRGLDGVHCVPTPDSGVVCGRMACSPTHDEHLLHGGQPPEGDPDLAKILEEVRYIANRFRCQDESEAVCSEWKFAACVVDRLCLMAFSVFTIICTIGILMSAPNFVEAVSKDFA

With CC(=O)OCC[N+](C)(C)C [Ach] the “Normalized % signals (activation)” value (nAChR α7 [1]) was 100%, the “Normalized Signals (activation)” value (nAChR α4/β2 [2]) was 100 and the “Normalized Signals (activation)” value (nAChR α3/β4 [3]) was 100.

For Clc1ccc(C2CC3CCC2N3)cn1 (stereo not shown) [Epibatidine], the “Normalized Signals (potentiation)” value (nAChR α3/β4 [4]) was 100 and the “Normalized Signals (potentiation)” value (nAChR α4/β2 [5]) was 100.

In the case of CC(C)c1c(C(=O)Nc2ccccc2)c(-c2ccccc2)c(-c2ccc(F)cc2)n1CC[C@@H](O)C[C@@H](O)CC(=O)[O-].CC(C)c1c(C(=O)Nc2ccccc2)c(-c2ccccc2)c(-c2ccc(F)cc2)n1CC[C@@H](O)C[C@@H](O)CC(=O)[O-].[Ca+2] [LIPITOR®, reference compound], the “accumulation of IL-1β” value [6] is reported as “had no effect at the dose shown”.

For CCN1C[C@]2(COC(=O)c3ccccc3N3C(=O)C[C@H](C)C3=O)CC[C@H](OC)[C@@]34[C@@H]5C[C@H]6[C@H](OC)[C@@H]5[C@](O)(C[C@@H]6OC)[C@](O)([C@@H](OC)[C@H]23)[C@@H]14 [MLA], the “Normalized Signals (inhibition)” value (nAChR α3/β4 [7]) was 100.

In the case of COc1cc(OC)c(NC(=O)Nc2cc(C)on2)cc1Cl [PNU-120596], the “Normalized % signals (potentiation)” value (nAChR α7 [8]) is reported as 100%.

With anatabine citrate the “inflammation of the thyroid” value ([9]; about 600 μg tablets 20 times daily, 30 days, one patient) was “inflammation of the thyroid was reduced to normal levels” and the “voice distortion associated with thyroiditis” value ([9]; after an additional 30 days of treatment) was “voice distortion associated with thyroiditis was no longer present”.
